Results as given in patent publication US8563522B2, “Method of maintaining and/or attenuating a decline in quality of life” (The IAMS Company, priority 1997, dated 2013).
Blank lines part the entries; values can stand above or below the compound they belong to.

How the values were obtained:
[1] = tested on: utilization of glucose as an energy source; settings: cited from earlier work
[2] = tested on: glucose metabolism; settings: rodents, long-term, lower dose; cited from earlier work
[3] = tested on: hexokinase; settings: cited from earlier work
[4] = injected into a rat; cited from earlier work
[5] = Pharmacokinetics, twice daily mannoheptulose in composition fed to older Labrador Retrievers; assay type: in vivo, Labrador Retriever dogs
Description: The pharmacokinetics of mannoheptulose can be determined in ten adult, female Labrador Retriever dogs fed a nutritionally-balanced composition providing mannoheptulose at levels of 0 or 2 mg/kg of body weight of the dog. Mannoheptulose is provided as avocado extract in the 2 mg/kg diet. The mean age of the dogs is 7.1 years and the age ranges from 5.3 to 8.4 years. Dogs are age-matched across the two composition groups. The average body weight of all dogs is 29 kg and ranges from 25 to 35 kg. The 0 mg/kg composition is fed as a nutritionally-balanced control composition (Eukanuba Senior Maintenance Formula) and it contains no mannoheptulose, avocado extract or avocado meal. The 2 mg/kg composition is the nutritionally-balanced control composition formulated to contain avocado extract to provide mannoheptulose at a dose of 2 mg/kg of body weight of the dog. The amount of composition offered to the dogs is based on feeding guidelines for the control composition and the target weight range and body condition of the dogs. Dogs are fed one-half their daily allotment of composition at 0730 and the remaining half at 1330. Dogs 1, 2, 3, 4 and 5 are fed the composition containing 2 mg/kg mannoheptulose and dogs 6, 7, 8, 9 and 10 are fed the composition containing 0 mg/kg mannoheptulose. Pharmacokinetics of mannoheptulose following twice daily administration of mannoheptulose in a nutritionally-balanced composition is determined by collecting serial blood samples (3 mL) from each dog using a Vacutainer blood collection system and jugular venipuncture. […] Plasma mannoheptulose concentrations are measured using high-performance liquid chromatography tandem mass spectrometry as described herein below.
A one-compartment model is used to calculate mannoheptulose pharmacokinetics based on plasma mannoheptulose levels following twice daily oral administration of mannoheptulose in a nutritionally-balanced composition (PV(t)). The model is: PV(t)=dose/(a·BW)e^−kt where: a=mannoheptulose pool size (dose/(enrichment at t0)), BW=body weight, k=rate constant of elimination (ln Et−ln E0)/−t, and t=time.
High performance liquid chromatography tandem mass spectrometry (HPLC/MS/MS) is utilized to determine the amount of mannoheptulose present in the plasma of adult dogs. […] Detection and quantitation is by mass spectrometry (MS) operating under multiple reaction monitoring MS/MS conditions. Concentrations of D-mannoheptulose in dog plasma can be quantitated from approximately 20 to 5000 ng/mL. […] Specimen concentrations are determined by back-calculation using a weighted (1/x^2) linear regression of a calibration curve generated from prepared D-mannoheptulose calibration standards. […]

[6] = Pharmacokinetics, once daily mannoheptulose in composition fed to adult Labrador Retrievers; assay type: in vivo, Labrador Retriever dogs
Description: The pharmacokinetics of mannoheptulose can be determined in six adult, male Labrador Retriever dogs fed a nutritionally-balanced composition providing mannoheptulose at levels of 0, 1 or 2 mg/kg of body weight of the dog. Mannoheptulose is provided as an enriched source of avocado extract in the 1 and 2 mg/kg diets. The mean age of the dogs is 4.2 years and the age ranges from 3.3 to 6.1 years. The average body weight of all dogs is 33 kg and the body weight ranges from 28 to 36 kg. Dogs are adapted for 14 days to a nutritionally-balanced control composition (Eukanuba Senior Maintenance Formula) containing no mannoheptulose, avocado extract or avocado meal (0 mg/kg mannoheptulose). The two compositions containing mannoheptulose are the nutritionally-balanced control composition formulated with avocado extract to provide a mannoheptulose dose of 1 or 2 mg/kg of body weight when fed to a dog. […] Pharmacokinetics of mannoheptulose following once daily administration of mannoheptulose in a nutritionally-balanced composition is determined by collecting serial blood samples (3 mL) from each dog on day 9 using a Vacutainer blood collection system and jugular venipuncture. […] Plasma mannoheptulose concentrations are measured using high-performance liquid chromatography tandem mass spectrometry as described herein below.
A one-compartment model is used to calculate mannoheptulose pharmacokinetics based on plasma mannoheptulose levels following once daily oral administration of mannoheptulose in a nutritionally-balanced composition (PV(t)). […] Area under each plasma mannoheptulose curve is determined using a one-way, repeated measures analysis of variance (GraphPad Prism version 4.00 for Windows).
High performance liquid chromatography tandem mass spectrometry (HPLC/MS/MS) is utilized to determine the amount of mannoheptulose present in the plasma of adult dogs. […] Detection and quantitation is by mass spectrometry (MS) operating under multiple reaction monitoring MS/MS conditions. Concentrations of D-mannoheptulose in dog plasma can be quantitated from approximately 20 to 5000 ng/mL. […]

[7] = injected, rats, cited from earlier work
[8] = doses of 10 grams, humans, orally; cited from earlier work
[9] = Mice fed a composition containing mannoheptulose; assay type: in vivo
[10] = tested on: isolated rat hepatocytes; settings: cited from earlier work

SMILES: CO[C@@H]([C@H](O)[C@H](O)CO)[C@@H](O)C=O [3-O-methylglucose]
responses relative to 2-deoxyglucose ([1]; administration in rats): about seven times weaker
metabolism ([1]; in contrast with 2-deoxy-D-glucose): not metabolized

SMILES: O=CC[C@@H](O)[C@H](O)[C@H](O)CO [2-deoxy-D-glucose]
metabolic hallmarks of caloric restriction [2]: reduced body temperature, weight loss, and lower fasting insulin levels

SMILES: O=P(O)(O)OC[C@H]1OC[C@H](O)[C@@H](O)[C@@H]1O [1,5-anhydro-D-glucitol-6-phosphate]
inhibition of hexokinase [3]: allosteric (non-competitive) inhibitor

SMILES: O=C[C@H](O)[C@@H](O)[C@H](O)[C@H](S)CO [5-Thioglucose, 5-thio-D-glucose]
injected 5-thioglucose excreted unchanged in urine [4]: 97%

time to second peak in plasma mannoheptulose ([5]; after feeding the afternoon meal, 2 mg/kg in two equal meals): 4 h
time to peak plasma mannoheptulose level ([5]; after initial (morning) feeding, 2 mg/kg in two equal meals): 4 h
plasma kinetics order ([5]; twice daily oral, 2 mg/kg): first order kinetics
half-life ([5]; twice daily, 2 mg/kg, after the afternoon meal): 5.63 h
plasma level response to dietary mannoheptulose level ([6]; 0, 1, 2 mg/kg): dose-dependent
time of return of plasma mannoheptulose to non-detectable levels ([6]; after consumption of the single daily meal): ≤ 24 h
plasma kinetics order ([6]; once daily oral, 1 or 2 mg/kg): first order kinetics
SMILES: O=C(CO)[C@@H](O)[C@@H](O)[C@H](O)[C@H](O)CO [mannoheptulose]
remained in the body ([7]; a day after the injection): 5%
excreted unchanged [7]: 66%
metabolized [7]: 29%
safety of oral dosing [8]: safely administered
body weight [9]: slightly reduced body weight
plasma insulin levels [9]: reduced plasma insulin levels

SMILES: OC[C@H]1O[C@H](CO)[C@@H](O)[C@@H]1O [2,5-Anhydro-D-mannitol, 2,5-anhydro-D-mannitol]
effect on glucose formation and utilization [10]: interfere in glucose formation and utilization
